Here are results for 2 substances from patent publication US11840686B2, “Modulation of prekallikrein (PKK) expression” (Ionis Pharmaceuticals, Inc., priority 2013, dated 2023).

Strand notation (5' to 3'): a small letter for the sugar, then the base; units joined by * are phosphorothioate-linked, units joined directly phosphodiester-linked; [ ] holds rarer units or linkages, { } end groups; capitals alone tell only the bases. e = 2'-O-(2-methoxyethyl) (MOE); [5mC] = 5-methylcytosine; d = 2'-deoxy (DNA)

A short description of data set [1]: Urine protein/creatinine ratio in cynomolgus monkeys (Example 8). To be noted: cynomolgus monkey, 40 mg/kg sc.
Data set [2] is described as follows: Tolerability / clinical observation of cynomolgus monkeys (Example 8). The data set is classed as in vivo, cynomolgus monkey. The following applies: primates, Example 8. On the procedure:
Cynomolgus monkeys were treated with ISIS antisense oligonucleotides selected from studies described above. Antisense oligonucleotide efficacy and tolerability were evaluated. The human antisense oligonucleotides tested are cross-reactive with the rhesus genomic sequence (GENBANK Accession No. NW_001118167.1 truncated from nucleotides 2358000 to 2391000 and designated herein as SEQ ID NO: 18).
During the study period, the monkeys were observed a minimum of once daily for signs of illness or distress. Any animal experiencing more than momentary or slight pain or distress due to the treatment, injury or illness was promptly reported to the responsible veterinarian and the Study Director. Any animal in poor health or in a possible moribund condition was identified for further monitoring and possible euthanasia. […] The protocols described in the Example were approved by the Institutional Animal Care and Use Committee (IACUC).

The subject of a further data set is PKK mRNA. Description: PKK mRNA in cynomolgus monkey liver (Example 8). The data set is classed as in vivo. To be noted: primates, Example 8. The method, boiled down: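 Cynomolgus monkeys were dosed with human antisense oligonucleotides cross-reactive with the rhesus sequence. Liver RNA taken on day 87 or 88, 48 h after the last dose, was assayed by real-time PCR (primer probe set RTS3455) and normalized to cyclophilin. Values are percent PKK mRNA inhibition versus PBS control.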

For the next data set, the system named is vascular leakage. Description: Vascular leakage, plasma Evans Blue OD620, basal model (Example 14). The data set is classed as in vivo, mouse. On the procedure: Groups 3, 4, 5, 6, 7, and 8 consisted of 8 mice each and were treated with 2.5 mg/kg, 5 mg/kg, 10 mg/kg, 20 mg/kg, 40 mg/kg, or 80 mg/kg (corresponding to 5 mg/kg, 10 mg/kg, 20 mg/kg, 40 mg/kg, 80 mg/kg, or 160 mg/kg per week), respectively of ISIS 482584 administered subcutaneously twice a week for 3 weeks. […] served as the experimental treatment groups for examining the effect of varying doses of ISIS 482584 on basal vascular permeability.
All the groups were then injected with 30 mg/kg of Evans Blue solution in the tail vein. The mice were sacrificed 30 min after the Evans Blue solution administration and colons, feet, and ears were harvested and examined for permeability defects. Blood samples were taken through cardiac puncture.
The blood drawn through cardiac puncture was immediately mixed with 3 times the volume of ice-cold ethanol. The solution was centrifuged at 15,000 g for 20 minutes at 4° C. to remove cell debris and precipitated plasma proteins. The ethanol extracts were further purified by ultra-filtration through a 10 kDa MWCO filter. The color intensity of the ethanol extracted plasma solution was then measured at OD620 nm. The results are presented in Table 70 as percentage increase or decrease of the OD values of the Group 1 PBS control. It was expected that treatment groups may display higher OD values due to reduced vascular leakage.

A further data set relates to PKK protein. The data set is described as follows: PKK protein in BALB/c mice plasma by immunoblot (Example 10). The data set is classed as in vivo, mouse. The following applies: for % inhibition of PKK protein in BALB/c mice plasma: twice a week for 3 weeks, relative to PBS control. On the procedure: (§1) Six groups of male BALB/c mice each were treated with 2.5 mg/kg, 5.0 mg/kg, 10.0 mg/kg, 20.0 mg/kg, 40.0 mg/kg, or 80.0 mg/kg of ISIS 482584, administered subcutaneously twice a week for 3 weeks (weekly doses of 5.0 mg/kg, 10.0 mg/kg, 20.0 mg/kg, 40.0 mg/kg, 80.0 mg/kg, or 160.0 mg/kg). A control group of BALB/c mice was treated with PBS, administered subcutaneously twice a week for 3 weeks. Two days after the last dose of antisense oligonucleotide or PBS, mice from all groups were anesthetized with 150 mg/kg ketamine mixed with 10 mg/kg xylazine, administered by intraperitoneal injection. Liver was collected for RNA analysis.
Plasma was collected in tubes containing sodium citrate as an anticoagulant. The samples were run on a 4-12% gradient SDS-polyacrylamide gel (Invitrogen), followed by immunoblotting with murine PKK antibody (R&D Systems). Blots were incubated with secondary fluorophore-labeled antibodies (LI-COR) and imaged in an Odyssey Imager (LI-COR). Results are presented as percent inhibition of PKK, relative to PBS control.
On the technique in general: A western blot detects proteins with antibodies after separation by electrophoresis.

For another data set, the system named is murine PKK mRNA. The data set is described as follows: PKK mRNA in BALB/c mice liver (Example 10). To be noted: for % inhibition of PKK mRNA in BALB/c mice liver: twice a week for 3 weeks, relative to PBS control. The data set is classed as in vivo, mouse. On the procedure:
ISIS 482584 was tested for its effect on murine PKK mRNA in vivo.
as §1
RNA was extracted from liver tissue for real-time PCR analysis of PKK. PKK mRNA levels were measured using the murine primer probe set (forward sequence […], designated herein as SEQ ID NO: 2231; reverse sequence […], designated herein as SEQ ID NO: 2232; probe sequence […], designated herein as SEQ ID NO: 2233). Results are presented as percent inhibition of PKK, relative to PBS control.

The mark [3] stands for this setting: BALB/c mice, 2.5-80.0 mg/kg s.c. twice a week for 3 weeks, vs PBS.

With “Tes Ges mCes Aes Aes Gds Tds mCds Tds mCds Tds Tds Gds Gds mCds Aes Aes Aes mCes Ae [ISIS 546254]”, the Urine protein/creatinine ratio in data set [1] is given as 0.04. In data set [2], the “tolerability in primates” value is recorded as “tolerable in primates”. In addition, the “inhibiting PKK mRNA and protein expression in primates” value in the data set on PKK mRNA is “effective for inhibiting PKK mRNA and protein expression”.

In the case of “ISIS 482584: 5-10-5 MOE gapmer targeting murine PKK, GGCATATTGGTTTTTGGAAT; SEQ ID NO: 2244 (antisense eG*eG*e[5mC]*eA*eT*dA*dT*dT*dG*dG*dT*dT*dT*dT*dT*eG*eG*eA*eA*eT)”, the “Percentage of OD620 nm of Evans Blue dye compared to the PBS basal control, Plasma” value in the data set on vascular leakage (10 mg/kg/week) is reported as 36%; in the data set with vascular leakage (20 mg/kg/week), 56%; in the data set with vascular leakage (40 mg/kg/week), 83%; with vascular leakage (80 mg/kg/week), 93%; in the data set with vascular leakage (160 mg/kg/week) it was 95%. Further, the “% inhibition of PKK protein in BALB/c mice plasma” value with PKK protein (5 mg/kg/wk sc) is listed as 5%; in the data set with PKK protein (10 mg/kg/wk sc) it was 24%; with PKK protein (20 mg/kg/wk sc), 47%; in the data set on PKK protein (40 mg/kg/wk sc), 76%; in the data set on PKK protein (80 mg/kg/wk sc) it was 81%. In addition, the “reduction of PKK plasma protein” value in the data set on PKK protein (setting [3]) is on record as “significant dose-dependent reduction of PKK plasma protein”. In addition, the “% inhibition of PKK mRNA in BALB/c mice liver” value in the data set with murine PKK mRNA (5 mg/kg/wk sc) came out at 3%; with murine PKK mRNA (10 mg/kg/wk sc), 42%; in the data set with murine PKK mRNA (20 mg/kg/wk sc), 68%; in the data set on murine PKK mRNA (40 mg/kg/wk sc) it was 85%; with murine PKK mRNA (80 mg/kg/wk sc), 91%; in the data set on murine PKK mRNA (160 mg/kg/wk sc) it was 94%. Further, in the data set on murine PKK mRNA (setting [3]), the “reduction of PKK mRNA in liver” value is listed as “significant dose-dependent reduction of PKK mRNA”.
